From patent US20240238274A1, “INHIBITORS OF UBIQUITIN SPECIFIC PEPTIDASE 22 (USP22) AND USES THEREOF FOR TREATING DISEASE AND DISORDERS” (Northwestern University, priority 2021, published 2024)

Experiments:
USP22 = biological target: T1, USP22 (Mus musculus, UniProt Q5DU02); experiment: Biological screening of the 25 chemicals, FOXP3 MFI reduction as readout; format: cell-based; conditions: biological validation of the 25 chemicals
T1 construct: endogenous in cells; probably murine iTreg
T1 sequence (Q5DU02 1-525): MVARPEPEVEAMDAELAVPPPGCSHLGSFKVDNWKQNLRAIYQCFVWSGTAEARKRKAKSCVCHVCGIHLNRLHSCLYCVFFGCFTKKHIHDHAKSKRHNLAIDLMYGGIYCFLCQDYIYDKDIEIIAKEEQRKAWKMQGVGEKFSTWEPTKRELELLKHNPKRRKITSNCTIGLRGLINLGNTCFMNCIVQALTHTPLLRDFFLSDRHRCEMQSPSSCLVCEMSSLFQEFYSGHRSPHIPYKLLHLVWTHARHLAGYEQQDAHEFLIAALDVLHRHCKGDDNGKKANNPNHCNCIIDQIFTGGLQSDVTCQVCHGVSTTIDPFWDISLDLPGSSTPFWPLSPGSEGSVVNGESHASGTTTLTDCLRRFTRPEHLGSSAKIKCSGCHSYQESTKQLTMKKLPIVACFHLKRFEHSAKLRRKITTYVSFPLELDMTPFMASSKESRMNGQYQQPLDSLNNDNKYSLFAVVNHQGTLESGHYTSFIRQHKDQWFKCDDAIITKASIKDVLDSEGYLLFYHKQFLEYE
T1 sequence (A2AWT3 1-347 partner): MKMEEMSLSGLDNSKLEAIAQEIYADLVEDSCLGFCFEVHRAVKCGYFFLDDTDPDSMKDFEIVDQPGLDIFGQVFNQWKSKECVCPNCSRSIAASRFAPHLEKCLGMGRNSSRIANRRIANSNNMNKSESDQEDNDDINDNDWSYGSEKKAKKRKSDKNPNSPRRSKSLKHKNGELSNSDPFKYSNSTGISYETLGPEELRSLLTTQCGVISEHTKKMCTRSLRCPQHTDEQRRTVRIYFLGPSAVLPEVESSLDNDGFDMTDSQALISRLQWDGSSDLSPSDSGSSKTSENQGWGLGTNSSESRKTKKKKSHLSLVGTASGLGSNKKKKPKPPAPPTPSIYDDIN
T1 sequence (Q9JIX0 1-101 partner): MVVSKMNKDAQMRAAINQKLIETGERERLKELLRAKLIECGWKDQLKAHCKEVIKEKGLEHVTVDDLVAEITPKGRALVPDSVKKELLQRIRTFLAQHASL
Source text: We then used both Lipinski's Rule and Veber's Rule to filter through the Specs database and found a total of 240K compounds binding to the catalytic pocket of our Usp22 model. We then filtered the top 100 compounds ranked by docking affinity by MD and MM/PBSA methods and were left with 25 compounds (Table 1). This limited number of compounds allowed us for further biological screening. As USP22 suppression leads to dramatic reduction in FOXP3 expression levels, we utilized FOXP3 MFI reduction as a readout for the biological validation of USP22 inhibitory efficacy by each of the 25 chemicals. […] The compound S02, structure shown in FIG. 6A, bound stably in the USP22 catalytic domain pocket shown by the RMSD trajectory (FIG. 14E) with strong binding energies to our USP22-md model (FIG. 14F). […] Therefore, future generations of Usp22 inhibitors should take into considerations not only the hydrophobic residues, but also the interaction between the inhibitor and the charged and polar residues on the surface of the binding pocket.

Foxp3 in iTreg cells = experiment: In vitro dose response and mechanism study in WT, Usp22-null and Usp21-null Treg cells; format: cell-based, murine
Procedure: FIG. 15: Usp22i-S02 halts Usp22-mediated Foxp3 deubiquitination. A, Graphical representation of Foxp3 MFI change in WT versus 22KO iTreg cells treated with various doses of Usp22i-S02 (n=3). B, Representative histogram of Foxp3 MFI level in iTreg cells as Usp22 inhibitor concentration increases from 0-20 μg/mL. C, Cell survival of iTreg cells treated with various doses of Usp22i-S02 (n=3). D, FOXP3 and USP22 protein level in WT and 22KO mice treated with 10 μg/mL Usp22i-S02. E-F, Graphical and representative data of Foxp3 MFI of human Treg cells treated with various doses of Usp22i-S02 (n=3). G, Graphical representation of Foxp3 MFI in WT, Usp21-null, and Usp22-null Treg cells treated with Usp22i-S02 at 10 μg/mL (n=3). H, FOXP3 and USP22 protein degradation of cycloheximide (10 μg/mL) treated iTreg cells with or without the addition of 10 μg/mL of Usp22i-S02. I-J, Endogenous DUB assay IP in iTreg cells of USP22 with FOXP3 under increasing concentrations of Usp22i-S02. K, Foxp3 mRNA level in iTreg cells as Usp22 inhibitor concentration increases from 0-20 μg/mL (n=3). L, FOXP3 and USP22 level in WT iTreg cells with or without 20 μg/mL Usp22 inhibitor treated with 20 μM MG132. M, Graphical representation of the percentage of decrease of Foxp3 MFI in either WT or Usp22-null nTreg cells placed in low glucose conditions with or without the addition of 10 μg/mL of Usp22i-S02 (n=7-8). N, Graphical representation of the percentage of decrease of Foxp3 MFI in WT nTreg cells placed in hypoxic or low amino acid conditions with or without the addition of 10 μg/mL of Usp22i-S02 (n=3-5). G, Two-tailed unpaired t-test comparing within groups was performed to determine statistical significance. K, One-way ANOVA with Dunnet's multiple comparisons between rows relative to control was performed to determine statistical significance. M-N, Two-way ANOVA with Sidak's multiple comparisons between rows was performed to determine statistical significance. All data are presented as mean±stdev. NS, not significant. *P<0.05, **P<0.01, ***P<0.001, ****P<0.0001.
After initial screening, we ran an in vitro dose response study on compound S02, now dubbed Usp22i-S02, in both WT and Usp22-null iTreg cells (FIG. 15A-C).
All nTreg and iTreg cells were plated as described above DMOG (Sigma Catalog #D3695) was administered to the cells in relevant experiments at 1 mM for 24 hours. Oligomycin (Sigma Catalog #75351) was administered at 1 μM to the media of the cells in relevant experiments for 24 hours. Torin 1 (Millipore Catalog #475991) was administered to the relevant cells at 250 nM for 24 hours. FOXP3 protein level was assessed via flow cytometry following […] of treatment of inhibitors described above. In vitro administration of Usp22i-S02 was at 10 ug/mL.

SMILES: N#Cc1c2c(c(Nc3ccccc3)n3c1nc1ccccc13)CCCC2 [Chemical S02, 11-anilino-7,8,9,10-tetrahydro-benzimidazo [1,2-b] isoquinoline-6-carbonitrile]
- efficacy in downregulating FOXP3 expression (USP22): strong efficacy in downregulating FOXP3 expression
- viability of iTreg cells (Foxp3 in iTreg cells; 10 μg/mL): little effect on viability
- effect on Foxp3 in iTreg cells lacking Usp21 (Foxp3 in iTreg cells; Usp21-null iTreg cells, 10 μg/mL): full effect
- Foxp3 MFI and protein level (Foxp3 in iTreg cells; WT iTreg cells, 10 μg/mL): decreases in Foxp3 MFI and protein level comparable to Usp22-null iTreg cells
- Foxp3 stability under glucose starvation (Foxp3 in iTreg cells; WT nTreg cells, low glucose, 10 μg/mL): significantly diminished Foxp3 stability
- FOXP3 degradation (Foxp3 in iTreg cells; cycloheximide (CHX) treated iTreg cells): enhanced FOXP3 degradation
- Foxp3 transcription (Foxp3 in iTreg cells; iTreg cells, Foxp3 mRNA, 0-20 μg/mL): decreased Foxp3 transcription
- FOXP3 ubiquitination (Foxp3 in iTreg cells; iTreg cells, endogenous DUB assay IP): increased FOXP3 ubiquitination
- FOXP3 levels in Treg cells lacking Usp22 (Foxp3 in iTreg cells; murine Treg cells lacking Usp22, in vivo and in vitro): minimal effect on FOXP3 levels
